According to patent US20260234187A1, “ANTIMICROBIAL PEPTIDES” (MATERIAS S.R.L., priority 2020, published 2026):
Like-named read-outs stand apart in the source and are kept apart here. Where no end group is shown, it is not given here.

Legend:
[1] = kinetics of structural rearrangements by Circular Dichroism, secondary structure by BESTSEL and Dichroweb; type: physicochemical; details: sodium acetate pH 4
Protocol: The structural and conformational characterization of the RiLK1 peptide was assessed by investigating its secondary structure by Circular Dichroism (CD) spectroscopy in the absence and in the presence of Sodium Dodecyl Sulfate (SDS) at a concentration of 3 mM to mimic the condition of the bacterial cell membrane.
The CD assays were performed with a Jasco J-810 spectropolarimeter equipped with a thermostated cuvette holder. The samples were loaded into a 0.1 cm long quartz cuvette (Hellma Analytics) and the spectrum was analysed in the range from 190 nm to 250 nm at room temperature for each sample.
The CD spectra were acquired at a scan rate of 20 nm/min, and the recorded results represent an average of 5 scans.
The mean residue ellipticity ([θ], degrees cm^2 dmol^−1) was calculated using the following equation: […]
The secondary structure was calculated through the DICHROWEB site (Whitmore L and Wallace B A, 2004, Nucleic Acids Research 32:668-673, Whitmore L and Wallace B A, 2008, Biopolymers 89:392-400, Lobley et al, 2002, Bioinformatics 18:211-212), using three different algorithms (SELCON3, CONTIN-LL and CDSSTR) (Sreerema N and Woody R W, 1993, Analytical Biochemistry 287:252-260) and selecting the SMP180 protein as the comparison data set, which includes a high number of spectra of soluble and membrane proteins (Abdul-Gader A et al, 2011, Bioinformatics 27:1630-1636).
The secondary structure was also calculated through the BETSEL site (Micsonai A. et al, 2018, Nucleic Acids Res. 46: W315-W322; Micsonai A. et al, 2015, Proc Natl Acad Sci USA; 112: E3095-E3103).
The kinetics of the structural rearrangements of the RiLK1 peptide were assessed over 24 hours by Circular Dichroism (CD) spectroscopy and fluorescence spectroscopy.
0.1 g/L of RiLK1 peptide was dissolved in 10 mM sodium acetate buffer at pH 4, in the absence or presence of 3 mM SDS.

[2] = type: physicochemical; design: α-helix (Bestsel) / β-sheet (Bestsel) / Random (Bestsel): unit not given here; details: 3 mM SDS; for Random (CONTIN-LL) / α-helix (CONTIN-LL) / β-sheet (CONTIN-LL): after a 24-hour incubation
Protocol: 0.1 g/L of RiLK1 peptide was dissolved in 10 mM concentration solutions at different pHs, in particular: glycine-HCL buffer (pH 2); sodium acetate buffer (pH 4); tris-HCL buffer (pH 7); glycine-NaOH buffer (pH 9). After a 1-hour incubation at 25° C., samples of each solution containing 3 mM SDS were prepared.

Substance: RLKWVRIWRR-NH2 [RiLK1, RLKWVRIWRR]
- Random (Bestsel) ([1]; t = 0 w/ 3 mM SDS): 41.3%
- Random (DichroWeb CONTIN-LL) ([1]; t = 0 w/ 3 mM SDS): 40%
- α-helix (Bestsel) ([1]; t = 0 w/ 3 mM SDS): 7.4%
- α-helix (DichroWeb CONTIN-LL) ([1]; t = 0 w/ 3 mM SDS): 22%
- β-sheet (Bestsel) ([1]; t = 0 w/ 3 mM SDS): 51.4%
- β-sheet (DichroWeb CONTIN-LL) ([1]; t = 0 w/ 3 mM SDS): 38%
- Random (Bestsel) ([1]; t = 5 min w/ 3 mM SDS): 42.2%
- Random (DichroWeb CONTIN-LL) ([1]; t = 5 min w/ 3 mM SDS): 36%
- α-helix (Bestsel) ([1]; t = 5 min w/ 3 mM SDS): 4.4%
- α-helix (DichroWeb CONTIN-LL) ([1]; t = 5 min w/ 3 mM SDS): 22%
- β-sheet (Bestsel) ([1]; t = 5 min w/ 3 mM SDS): 53.4%
- β-sheet (DichroWeb CONTIN-LL) ([1]; t = 5 min w/ 3 mM SDS): 42%
- Random (Bestsel) ([1]; t = 30 min w/ 3 mM SDS): 40.3%
- Random (DichroWeb CONTIN-LL) ([1]; t = 30 min w/ 3 mM SDS): 37%
- α-helix (Bestsel) ([1]; t = 30 min w/ 3 mM SDS): 11%
- α-helix (DichroWeb CONTIN-LL) ([1]; t = 30 min w/ 3 mM SDS): 25%
- β-sheet (Bestsel) ([1]; t = 30 min w/ 3 mM SDS): 48.7%
- β-sheet (DichroWeb CONTIN-LL) ([1]; t = 30 min w/ 3 mM SDS): 38%
- Random (DichroWeb CONTIN-LL) ([1]; t = 1 h (60 min) w/ 3 mM SDS): 39%
- α-helix (DichroWeb CONTIN-LL) ([1]; t = 1 h (60 min) w/ 3 mM SDS): 23%
- β-sheet (DichroWeb CONTIN-LL) ([1]; t = 1 h (60 min) w/ 3 mM SDS): 38%
- Random (Bestsel) ([1]; t = 1 h w/ 3 mM SDS): 39.1%
- α-helix (Bestsel) ([1]; t = 1 h w/ 3 mM SDS): 9.8%
- β-sheet (Bestsel) ([1]; t = 1 h w/ 3 mM SDS): 51.1%
- Random (DichroWeb CONTIN-LL) ([1]; t = 5 h (300 min) w/ 3 mM SDS): 38%
- α-helix (DichroWeb CONTIN-LL) ([1]; t = 5 h (300 min) w/ 3 mM SDS): 19%
- β-sheet (DichroWeb CONTIN-LL) ([1]; t = 5 h (300 min) w/ 3 mM SDS): 43%
- Random (Bestsel) ([1]; t = 5 h w/ 3 mM SDS): 39.3%
- α-helix (Bestsel) ([1]; t = 5 h w/ 3 mM SDS): 6.7%
- β-sheet (Bestsel) ([1]; t = 5 h w/ 3 mM SDS): 54%
- Random (DichroWeb CONTIN-LL) ([1]; t = 6 h (360 min) w/ 3 mM SDS): 37%
- α-helix (DichroWeb CONTIN-LL) ([1]; t = 6 h (360 min) w/ 3 mM SDS): 19%
- β-sheet (DichroWeb CONTIN-LL) ([1]; t = 6 h (360 min) w/ 3 mM SDS): 44%
- Random (Bestsel) ([1]; t = 6 h w/ 3 mM SDS): 40.1%
- α-helix (Bestsel) ([1]; t = 6 h w/ 3 mM SDS): 8%
- β-sheet (Bestsel) ([1]; t = 6 h w/ 3 mM SDS): 52%
- Random (Bestsel) ([1]; t = 24 h w/ 3 mM SDS): 38%
- Random (DichroWeb CONTIN-LL) ([1]; t = 24 h w/ 3 mM SDS): 24%
- α-helix (Bestsel) ([1]; t = 24 h w/ 3 mM SDS): 8.4%
- α-helix (DichroWeb CONTIN-LL) ([1]; t = 24 h w/ 3 mM SDS): 29%
- β-sheet (Bestsel) ([1]; t = 24 h w/ 3 mM SDS): 53.6%
- β-sheet (DichroWeb CONTIN-LL) ([1]; t = 24 h w/ 3 mM SDS): 47%
- Random (Bestsel) ([1]; w/o 3 mM SDS): 51.5%
- Random (DichroWeb CONTIN-LL) ([1]; w/o 3 mM SDS): 61%
- α-helix (Bestsel) ([1]; w/o 3 mM SDS): 1.2%
- α-helix (DichroWeb CONTIN-LL) ([1]; w/o 3 mM SDS): 4%
- β-sheet (Bestsel) ([1]; w/o 3 mM SDS): 47.3%
- β-sheet (DichroWeb CONTIN-LL) ([1]; w/o 3 mM SDS): 35%
- Random (Bestsel) ([2]; pH 2, t = 0): 44.4
- Random (DichroWeb CONTIN-LL) ([2]; pH 2, t = 0): 39%
- α-helix (Bestsel) ([2]; pH 2, t = 0): 18.5
- α-helix (DichroWeb CONTIN-LL) ([2]; pH 2, t = 0): 22%
- β-sheet (Bestsel) ([2]; pH 2, t = 0): 37
- β-sheet (DichroWeb CONTIN-LL) ([2]; pH 2, t = 0): 39%
- Random (Bestsel) ([2]; pH 2, t = 24 hours): 44.3
- Random (DichroWeb CONTIN-LL) ([2]; pH 2, t = 24 hours): 39%
- α-helix (Bestsel) ([2]; pH 2, t = 24 hours): 13.2
- α-helix (DichroWeb CONTIN-LL) ([2]; pH 2, t = 24 hours): 17%
- β-sheet (Bestsel) ([2]; pH 2, t = 24 hours): 42.5
- β-sheet (DichroWeb CONTIN-LL) ([2]; pH 2, t = 24 hours): 44%
- Random (Bestsel) ([2]; pH 4, t = 0): 52.4
- Random (DichroWeb CONTIN-LL) ([2]; pH 4, t = 0): 36%
- α-helix (Bestsel) ([2]; pH 4, t = 0): 7.7
- α-helix (DichroWeb CONTIN-LL) ([2]; pH 4, t = 0): 23%
- β-sheet (Bestsel) ([2]; pH 4, t = 0): 39.8
- β-sheet (DichroWeb CONTIN-LL) ([2]; pH 4, t = 0): 41%
- Random (Bestsel) ([2]; pH 4, t = 24 hours): 41.2
- Random (DichroWeb CONTIN-LL) ([2]; pH 4, t = 24 hours): 35%
- α-helix (Bestsel) ([2]; pH 4, t = 24 hours): 13.3
- α-helix (DichroWeb CONTIN-LL) ([2]; pH 4, t = 24 hours): 24%
- β-sheet (Bestsel) ([2]; pH 4, t = 24 hours): 45.5
- β-sheet (DichroWeb CONTIN-LL) ([2]; pH 4, t = 24 hours): 41%
- Random (Bestsel) ([2]; pH 7, t = 0): 45.4
- Random (DichroWeb CONTIN-LL) ([2]; pH 7, t = 0): 36%
- α-helix (Bestsel) ([2]; pH 7, t = 0): 15
- α-helix (DichroWeb CONTIN-LL) ([2]; pH 7, t = 0): 25%
- β-sheet (Bestsel) ([2]; pH 7, t = 0): 39.5
- β-sheet (DichroWeb CONTIN-LL) ([2]; pH 7, t = 0): 39%
- Random (Bestsel) ([2]; pH 7, t = 24 hours): 40.8
- Random (DichroWeb CONTIN-LL) ([2]; pH 7, t = 24 hours): 37%
- α-helix (Bestsel) ([2]; pH 7, t = 24 hours): 15.5
- α-helix (DichroWeb CONTIN-LL) ([2]; pH 7, t = 24 hours): 19%
- β-sheet (Bestsel) ([2]; pH 7, t = 24 hours): 43.8
- β-sheet (DichroWeb CONTIN-LL) ([2]; pH 7, t = 24 hours): 44%
- Random (Bestsel) ([2]; pH 9, t = 0): 44.4
- Random (DichroWeb CONTIN-LL) ([2]; pH 9, t = 0): 39%
- α-helix (Bestsel) ([2]; pH 9, t = 0): 13.7
- α-helix (DichroWeb CONTIN-LL) ([2]; pH 9, t = 0): 19%
- β-sheet (Bestsel) ([2]; pH 9, t = 0): 42
- β-sheet (DichroWeb CONTIN-LL) ([2]; pH 9, t = 0): 42%
- Random (Bestsel) ([2]; pH 9, t = 24 hours): 42.9
- Random (DichroWeb CONTIN-LL) ([2]; pH 9, t = 24 hours): 24%
- α-helix (Bestsel) ([2]; pH 9, t = 24 hours): 13.4
- α-helix (DichroWeb CONTIN-LL) ([2]; pH 9, t = 24 hours): 29%
- β-sheet (Bestsel) ([2]; pH 9, t = 24 hours): 43.8
- β-sheet (DichroWeb CONTIN-LL) ([2]; pH 9, t = 24 hours): 47%
- Random (CONTIN-LL) ([2]; Table 8: pH 2): 39%
- α-helix (CONTIN-LL) ([2]; Table 8: pH 2): 22%
- β-sheet (CONTIN-LL) ([2]; Table 8: pH 2): 39%
- Random (CONTIN-LL) ([2]; Table 8: pH 4): 36%
- α-helix (CONTIN-LL) ([2]; Table 8: pH 4): 23%
- β-sheet (CONTIN-LL) ([2]; Table 8: pH 4): 41%
- Random (CONTIN-LL) ([2]; Table 8: pH 7): 36%
- α-helix (CONTIN-LL) ([2]; Table 8: pH 7): 25%
- β-sheet (CONTIN-LL) ([2]; Table 8: pH 7): 39%
- Random (CONTIN-LL) ([2]; Table 8: pH 9): 39%
- α-helix (CONTIN-LL) ([2]; Table 8: pH 9): 19%
- β-sheet (CONTIN-LL) ([2]; Table 8: pH 9): 42%
